Test results: ChEMBL document CHEMBL5724709, “EUbOPEN Chemogenomics Library - IncuCyte” (2024)
Where “and” joins values, the source holds several entries; their conditions need not be identical. Identical values can stand only once.

Columns and labels:
Format in all cases: toxicity, cell-based
[1] = tested on: HEK-293T; test: Incucyte cell viability with HEK293T; conditions: human, 24 h, 10 µM, compound concentration 10 uM
[2] = tested on: Fibroblast; test: Incucyte cell viability with human fibroblast; conditions: 24 h, 10 µM, compound concentration 10 uM
[3] = tested on: U2OS; test: Incucyte cell viability with U2OS; conditions: human, 24 h, 10 µM, compound concentration 10 uM
Also: unitless GR value; below 1 slowed growth and below 0 cell loss.

## CC(C)n1nc(-c2cc3cc(O)ccc3[nH]2)c2c(N)ncnc21
[1]; replicate number 1
  Growth Rate: -0.17
[1]; replicate number 2
  Growth Rate: -0.09
[2]; replicate number 1
  Growth Rate: 0.59
[2]; replicate number 2
  Growth Rate: 0.98
[3]; replicate number 1
  Growth Rate: -0.49
[3]; replicate number 2
  Growth Rate: -0.01

## CCN(CC)S(=O)(=O)c1cc(Nc2nccc(-c3ccnc(-c4ccc(NC(=O)NC)cc4)c3)n2)ccc1Cl
[1]; replicate number 1
  Growth Rate: -0.42
[1]; replicate number 2
  Growth Rate: -0.23
[2]; replicate number 1
  Growth Rate: 0.14
[2]; replicate number 2
  Growth Rate: -0.71
[3]; replicate number 1
  Growth Rate: -0.05
[3]; replicate number 2
  Growth Rate: 0.12

## CC(C)N(CCCNC(=O)Nc1ccc(C(C)(C)C)cc1)C[C@H]1O[C@@H](n2ccc3c(N)ncnc32)[C@H](O)[C@@H]1O
[1]; replicate number 1
  Growth Rate: 0.74
[1]; replicate number 2
  Growth Rate: 0.84
[2]; replicate number 1
  Growth Rate: 1
[3]; replicate number 1
  Growth Rate: 1
[3]; replicate number 2
  Growth Rate: 0.59

## O=C(COc1ccc(-c2oc3cc(O)c(C(=O)O)cc3c2C#Cc2cccc(Cl)c2)cc1)NC1CC1
[1]; replicate number 1
  Growth Rate: 0.87
[1]; replicate number 2
  Growth Rate: 0.84
[2]; replicate number 1
  Growth Rate: 0.84
[2]; replicate number 2
  Growth Rate: -0.06
[3]; replicate number 1
  Growth Rate: 0.39
[3]; replicate number 2
  Growth Rate: 0.84

## Nc1c[nH]c(=O)c2cc(-c3ccccc3)sc12
[1]; replicate number 1
  Growth Rate: 0.88
[1]; replicate number 2
  Growth Rate: 0.73
[2]; replicate number 1
  Growth Rate: -0.61
[2]; replicate number 2
  Growth Rate: -0.86
[3]; replicate number 1
  Growth Rate: -0.48
[3]; replicate number 2
  Growth Rate: 0.33

## CCNC(=O)NCCSC[C@H]1O[C@@H](n2cnc3c(N)ncnc32)[C@H](O)[C@@H]1O
[1]; replicate number 1
  Growth Rate: 0.71
[1]; replicate number 2
  Growth Rate: 0.87
[2]; replicate number 1
  Growth Rate: 0.65
[2]; replicate number 2
  Growth Rate: 0
[3]; replicate number 1
  Growth Rate: 1
[3]; replicate number 2
  Growth Rate: 0.72

## Cc1ncc(Cl)cc1NCc1ccc(C(=O)N[C@@H](CC2CCCC2)C(=O)NC2CC2)s1
[1]; replicate number 1
  Growth Rate: 0.59
[1]; replicate number 2
  Growth Rate: 0.85
[2]; replicate number 1
  Growth Rate: 0.64
[2]; replicate number 2
  Growth Rate: 0.26
[3]; replicate number 1
  Growth Rate: 0.37
[3]; replicate number 2
  Growth Rate: 0.86

## CCN(c1cc(C#CCN2CCOCC2)cc(C(=O)NCc2c(C)cc(C)[nH]c2=O)c1C)[C@H]1CC[C@H](N(C)CCOC)CC1
[1]; replicate number 1
  Growth Rate: 0.57
[1]; replicate number 2
  Growth Rate: 0.74
[2]; replicate number 1
  Growth Rate: 1
[3]; replicate number 1
  Growth Rate: 1
[3]; replicate number 2
  Growth Rate: 0.81

## CCCOc1ccc(CCc2nc3cc(-c4c(C)noc4C)ccc3n2CCN2CCOCC2)cc1
[1]; replicate number 1
  Growth Rate: 0.54
[1]; replicate number 2
  Growth Rate: 0.57
[2]; replicate number 1
  Growth Rate: 1
[2]; replicate number 2
  Growth Rate: 0.67
[3]; replicate number 1
  Growth Rate: 0.57
[3]; replicate number 2
  Growth Rate: 0.8

## Cc1ccc(C(=O)NCCCCCC(=O)Nc2ccccc2N)cc1
[1]; replicate number 1
  Growth Rate: 1
[3]; replicate number 2
  Growth Rate: 0.95 and 0.84

## O=C(NC[C@H](O)CN1CCc2ccccc2C1)c1cc(NC2COC2)ncn1
[1]; replicate number 1
  Growth Rate: 0.54
[1]; replicate number 2
  Growth Rate: 0.94
[2]; replicate number 1
  Growth Rate: 1
[2]; replicate number 2
  Growth Rate: 0.5
[3]; replicate number 1
  Growth Rate: 1

## O=c1[nH]ccc2cc(F)c(NS(=O)(=O)c3ccc(N4CC[C@@H](O)C4)s3)cc12
[1]; replicate number 1
  Growth Rate: 0.79
[1]; replicate number 2
  Growth Rate: 0.98
[2]; replicate number 1
  Growth Rate: 0.99
[2]; replicate number 2
  Growth Rate: 0.64
[3]; replicate number 1
  Growth Rate: 1
[3]; replicate number 2
  Growth Rate: 0.94

## CS(=O)(=O)c1ccc(-c2cnc(NCc3ccco3)n3cnnc23)cc1
[1]; replicate number 1
  Growth Rate: 0.63
[1]; replicate number 2
  Growth Rate: 0.95
[2]; replicate number 1
  Growth Rate: 1
[2]; replicate number 2
  Growth Rate: 0.87
[3]; replicate number 1
  Growth Rate: 1
[3]; replicate number 2
  Growth Rate: 0.66

## CC(=O)N1CCc2c(c(N3CCCc4cc(-c5cnn(C)c5)c(C(F)F)cc43)nn2C2CCOCC2)C1
[1]; replicate number 1
  Growth Rate: 0.61
[1]; replicate number 2
  Growth Rate: 0.51
[2]; replicate number 1
  Growth Rate: 0.79
[2]; replicate number 2
  Growth Rate: 1
[3]; replicate number 1
  Growth Rate: 1
[3]; replicate number 2
  Growth Rate: 0.89

## CNC(=O)N1CCc2c(c(N3CCCc4cc(-c5cnn(C)c5)c(C(F)F)cc43)nn2C2CCOCC2)C1
[1]; replicate number 1
  Growth Rate: 0.56
[1]; replicate number 2
  Growth Rate: 0.52
[2]; replicate number 1
  Growth Rate: 1
[2]; replicate number 2
  Growth Rate: 0.36
[3]; replicate number 1
  Growth Rate: 0.76
[3]; replicate number 2
  Growth Rate: 1

## Cc1cc2cc(NS(=O)(=O)c3ccc(C#N)cc3)ccc2n(C)c1=O
[1]; replicate number 1
  Growth Rate: 0.88
[2]; replicate number 1
  Growth Rate: 0.71
[2]; replicate number 2
  Growth Rate: 0.65
[3]; replicate number 1
  Growth Rate: 1

## Cc1ncsc1-c1ccc(CNC(=O)[C@@H]2C[C@@H](O)CN2C(=O)[C@@H](NC(=O)COCCOCCOCCNC(=O)C[C@@H]2N=C(c3ccc(Cl)cc3)c3c(sc(C)c3C)-n3c(C)nnc32)C(C)(C)C)cc1
[1]; replicate number 1
  Growth Rate: 0.01
[1]; replicate number 2
  Growth Rate: 0.16
[2]; replicate number 1
  Growth Rate: 0.23
[2]; replicate number 2
  Growth Rate: -0.26
[3]; replicate number 1
  Growth Rate: -0.19
[3]; replicate number 2
  Growth Rate: 0.31

## FC(F)(F)Oc1ccc(Oc2ccnc(N3CCC(NC(=S)Nc4cccnc4)CC3)c2Cl)c(Cl)c1
[1]; replicate number 1
  Growth Rate: -0.1
[1]; replicate number 2
  Growth Rate: 0.12
[2]; replicate number 1
  Growth Rate: 0.38
[2]; replicate number 2
  Growth Rate: -0.07
[3]; replicate number 1
  Growth Rate: 0.35
[3]; replicate number 2
  Growth Rate: 0.56

## Cc1nn(CC(F)(F)F)cc1Nc1ncc(Br)c(NCc2ccc(S(N)(=O)=O)cc2)n1
[1]; replicate number 1
  Growth Rate: 0.53
[1]; replicate number 2
  Growth Rate: 1
[2]; replicate number 1
  Growth Rate: 1
[3]; replicate number 1
  Growth Rate: 1
[3]; replicate number 2
  Growth Rate: 0.83

## Cc1cc(-c2ccccc2)cc(C(=O)NNS(=O)(=O)c2ccccc2)c1F
[1]; replicate number 1
  Growth Rate: 0.49
[1]; replicate number 2
  Growth Rate: 0.81
[2]; replicate number 1
  Growth Rate: 1
[2]; replicate number 2
  Growth Rate: 0.27
[3]; replicate number 1
  Growth Rate: 0.87
[3]; replicate number 2
  Growth Rate: 0.89

## O=C(NCCc1cc(C(=O)NO)no1)c1ccc(Cl)c(Cl)c1
[1]; replicate number 1
  Growth Rate: 0.99
[1]; replicate number 2
  Growth Rate: 1
[2]; replicate number 1
  Growth Rate: 1
[2]; replicate number 2
  Growth Rate: 0.22
[3]; replicate number 1
  Growth Rate: 0.33
[3]; replicate number 2
  Growth Rate: 1

## C[C@H](Nc1cc(Cl)nc2c1cnn2[C@@H]1O[C@H](COP(=O)(O)CP(=O)(O)O)[C@@H](O)[C@H]1O)c1ccccc1F
[1]; replicate number 1
  Growth Rate: 0.88
[1]; replicate number 2
  Growth Rate: 1
[2]; replicate number 1
  Growth Rate: 0.88
[2]; replicate number 2
  Growth Rate: 1
[3]; replicate number 1
  Growth Rate: 1

## C[C@H]1CCCN1Cc1nc2cc(NC(=O)c3ccc4c(cnn4C)c3)ccc2[nH]1
[1]; replicate number 1
  Growth Rate: 0.37
[1]; replicate number 2
  Growth Rate: 0.49
[2]; replicate number 1
  Growth Rate: 1
[2]; replicate number 2
  Growth Rate: 0.78
[3]; replicate number 1
  Growth Rate: 0.16
[3]; replicate number 2
  Growth Rate: 0.68

## C[C@H](CN[C@@H](C(=O)Nc1ccc(-c2cnn(C)c2)cn1)c1ccccc1)c1ccc(C#N)cc1
[1]; replicate number 1
  Growth Rate: 0.04
[1]; replicate number 2
  Growth Rate: 0.3
[2]; replicate number 1
  Growth Rate: 0.34
[2]; replicate number 2
  Growth Rate: -0.53
[3]; replicate number 1
  Growth Rate: 0.58
[3]; replicate number 2
  Growth Rate: 0.39

## O=S(=O)(O)c1ccc2cc(/N=N/c3cc(S(=O)(=O)O)c4cccnc4c3O)ccc2c1
[1]; replicate number 1
  Growth Rate: 1
[2]; replicate number 1
  Growth Rate: 0.17
[2]; replicate number 2
  Growth Rate: -0.42
[3]; replicate number 1
  Growth Rate: -0.34
[3]; replicate number 2
  Growth Rate: 1

## CCCOc1cccc(Oc2cc3c(cc2NS(=O)(=O)c2cccc(C(=O)NCCOCCOCCOCC(=O)N[C@H](C(=O)N4C[C@H](O)C[C@H]4C(=O)NCc4ccc(-c5scnc5C)cc4)C(C)(C)C)c2)n(C)c(=O)n3C)c1
[1]; replicate number 1
  Growth Rate: 0.11
[1]; replicate number 2
  Growth Rate: 0.31
[2]; replicate number 1
  Growth Rate: 1
[3]; replicate number 1
  Growth Rate: 0.91
[3]; replicate number 2
  Growth Rate: 0.63

## O=C1/C(=N/Nc2ccc(S(=O)(=O)O)cc2)C(c2ccc([N+](=O)[O-])cc2)=NN1c1ccccc1
[1]; replicate number 1
  Growth Rate: 0.59
[1]; replicate number 2
  Growth Rate: 1
[2]; replicate number 1
  Growth Rate: 1
[3]; replicate number 1
  Growth Rate: 0.88
[3]; replicate number 2
  Growth Rate: 1

## Cc1ncsc1-c1ccc(CNC(=O)[C@@H]2C[C@@H](O)CN2C(=O)[C@@H](NC(=O)COCC(C)(COCCOCCOCCNC(=O)C[C@@H]2N=C(c3ccc(Cl)cc3)c3c(sc(C)c3C)-n3c(C)nnc32)COCCOCCOCCNC(=O)C[C@@H]2N=C(c3ccc(Cl)cc3)c3c(sc(C)c3C)-n3c(C)nnc32)C(C)(C)C)cc1
[1]; replicate number 1
  Growth Rate: 1
[2]; replicate number 1
  Growth Rate: 1
[3]; replicate number 1
  Growth Rate: 0.43
[3]; replicate number 2
  Growth Rate: 0.95

## Cn1c(=O)c2c(nc(N3CCNCC3)n2Cc2nnc(-c3ccc(Cl)c(Cl)c3)o2)n(C)c1=O
[1]; replicate number 1
  Growth Rate: 0.79
[1]; replicate number 2
  Growth Rate: 1
[2]; replicate number 1
  Growth Rate: 1
[3]; replicate number 1
  Growth Rate: 1
[3]; replicate number 2
  Growth Rate: 0.88
